Measured values: patent US20030191144A1, “Compounds, compositions and methods for modulating beta-amyloid production” (Active Pass Pharmaceuticals, Inc., priority 2001, published 2003)

Legend:
[1] = system: Aβtotal from primary murine cortical neurons; test: Aβtotal immunoprecipitation, primary murine cortical neurons infected with APP695; format: cell-based; settings: primary murine cortical neurons infected with APP695, below 250 μM (5-50 μM)
Procedure: (§1) The cDNA coding for human APP695 is cloned in the Smal site of pSFV-1 as described previously (Simons et al., J. Neurosci. 16:899-908, 1996; Tienari et al., Embo. J. 15:5218-29, 1996). PSFV-1/huAPP695 constructs are linearized,with SpeI and run-off transcription using SP6 polymerase is performed to produce mRNA. The transcribed mix of APP and pSFV-helper are cotransfected into BHK cells by electroporation to yield recombinant SFV (Olkkonen et al., J. Neurosci. Res. 35:445-51, 1993). BHK cells are grown in DMEM/F12 supplemented with 5% fetal calf serum, 2 mM L-glutamine, 100 U/ml penicillin, and […] streptomycin. Twenty-four hours after transfection, the culture supernatant containing infective recombinant SFV is collected. Aliquots are snap-frozen in liquid nitrogen and stored at −70° C. until use.
All experiments are conducted on murine primary cortical neurons derived from E14 embryos according to established procedures (Annaert et al., J. Cell Biol. 147:277-294, 1999; Cupers et al., J. Cell Biol. 154:731-40, 2001; De Strooper et al., Nature 391:387-90, 1998). […]
Data are expressed as a percent of control and represent the mean±SD with n=6 and statistical significance determined by ANOVA with a Tukey's post hoc test at **p<0.01, ***p<0.001.

[2] = system: Aβ42 from primary murine cortical neurons; test: Aβ42 sandwich ELISA, primary murine cortical neurons infected with APP695; format: cell-based; settings: primary murine cortical neurons infected with APP695, 5 μM, p<0.01, n=6
Procedure: as §1, with “use. […]” for “use.”
The levels of the longer Aβ42 peptide are quantified in both the conditioned media and cell extracts using a sandwich ELISA test (De Strooper et al., Nature 391:387-90, 1998; Vanderstichele et al., Amyloid. 7:245-58, 2000). […] Finally HRP substrate is added and the colorimetric reaction is quantitated spectrophotometrically using a Victor 2 (Wallac) equipped with a 450 nm filter. […] The Aβ42 concentrations in the samples are finally calculated based on the Aβ42 standards nonlinear regression equation and using Mathematica 4.1 software package (Wolfram Research, Champaign, Ill.). […]

Cc1cccc(Nc2cc(Cl)nc(SCC(=O)O)n2)c1C [pirinixic acid]
effect on Aβtotal [1]: no significant effect
decrease in Aβ42 [2]: 20%
